The NIST ThermoML archive (doi:10.1016/j.tca.2005.01.064)

What was measured:
[1] = excess molar enthalpy (molar enthalpy of mixing); xn = mol fraction of the nth substance listed; conditions: 308.15 K, 101.33 kPa, Liquid, Flow calorimetry
[2] = 308.15 K; 101.33 kPa; Liquid; Vibrating tube method

OCCO [1,2-ethanediol] + CCO
[1]
Conditions | excess molar enthalpy [kcal/mol]
x1 = 0.0719 | 0.0526
x1 = 0.1341 | 0.0833
x1 = 0.1886 | 0.103
x1 = 0.2365 | 0.115
x1 = 0.3173 | 0.126
x1 = 0.3826 | 0.131
x1 = 0.4817 | 0.131
x1 = 0.5533 | 0.125
x1 = 0.6502 | 0.115
x1 = 0.7361 | 0.099
x1 = 0.788 | 0.0846
x1 = 0.8479 | 0.0684
x1 = 0.8815 | 0.0565
x1 = 0.9177 | 0.0413
x1 = 0.9371 | 0.0333
x1 = 0.9571 | 0.0229
x1 = 0.9781 | 0.012

OCCOCCOCCO [triethylene glycol]
Conditions | mass density [kg/m3]
[2] | 1112.09

OCCOCCOCCO [triethylene glycol] + CCO
[1]
Conditions | excess molar enthalpy [kcal/mol]
x1 = 0.0313 | 0.0319
x1 = 0.0606 | 0.0563
x1 = 0.0883 | 0.077
x1 = 0.1143 | 0.0905
x1 = 0.1623 | 0.111
x1 = 0.2047 | 0.125
x1 = 0.2792 | 0.141
x1 = 0.3405 | 0.145
x1 = 0.4365 | 0.15
x1 = 0.5376 | 0.146
x1 = 0.6078 | 0.145
x1 = 0.6992 | 0.132
x1 = 0.756 | 0.117
x1 = 0.823 | 0.0973
x1 = 0.8613 | 0.0786
x1 = 0.9029 | 0.0595
x1 = 0.949 | 0.0324

OCCOCCO [diethylene glycol]
Conditions | mass density [kg/m3]
[2] | 1105.65

CCO [ethanol]
Conditions | mass density [kg/m3]
[2] | 776.41

OCCOCCO [diethylene glycol] + CCO
[1]
Conditions | excess molar enthalpy [kcal/mol]
x1 = 0.0434 | 0.0185
x1 = 0.0833 | 0.0319
x1 = 0.1199 | 0.0422
x1 = 0.1537 | 0.0483
x1 = 0.2142 | 0.0582
x1 = 0.2663 | 0.063
x1 = 0.3528 | 0.0668
x1 = 0.4208 | 0.0668
x1 = 0.5216 | 0.0644
x1 = 0.6206 | 0.0565
x1 = 0.6856 | 0.0507
x1 = 0.7658 | 0.0417
x1 = 0.8135 | 0.0353
x1 = 0.8674 | 0.0262
x1 = 0.8973 | 0.0217
x1 = 0.929 | 0.0152
x1 = 0.9632 | 0.00786
